# Assays:
# [1] = biological target: renal medullary PRR (Rattus norvegicus, UniProt Q6AXS4); experiment: AngII-induced hypertension in uninephrectomized SD rats, telemetry MAP; type: in vivo; conditions: AngII 100 ng/kg/min s.c. alone or with intramedullary PRO20 120 μg/kg/d; day 0 MAP 108+5.8
# Experimental: FIGS. 26A, 26B, 26C, 26D, and 26E show the characterization of PRO20 and examination of its effect on AngII-induced hypertension. Comparison of PRO20 (B and D) and the HRP (A and C) in inhibiting prorenin-induced signaling. Primary rat IMCD cells were pretreated for 1 h with PRO20 (1.5 μM) or the HRP (2.0 μM) and then were exposed to 100 nM prorenin for 10 min. ERK1/2 phosphorylation was determined by immunoblotting. (E) Effect of intramedullary delivery of PRO20 on AngII-induced hypertension. Uninephrectomized SD rats were divided into the following three groups: (1) AngII, (2) AngII+IM PRO (intramedullary PRO20 infusion), and (3) AngII+IV PRO20 (intravenous PRO20 infusion). AngII was subcutaneously infused at 100 ng/kg/min via an osmotic mini-pump. IM PRO (PRO20 at 120 μg/kg/d) was performed via a catheter chronically implanted in the renal medulla. To control the spillover, IV PRO (PRO20 at 120 μg/kg/d) was performed via catheterization of jugular vein. Telemetry was performed to monitor mean arterial pressure (MAP) and it was turned on 4 h per day from 5:00 PM to 9:00 PM for 7 days. #p<0.01 vs. intravenous PRO20; *, p<0.05 vs. AngII alone. N=3-6 per group. Data are mean+SE. […]
# [2] = Plasma and urinary aldosterone in AngII-infused rats; type: in vivo, rat; conditions: following AngII infusion
# Experimental: FIGS. 31A, B, and C show the role of PRR in AngII-induced aldosterone production in vivo and in vitro. Plasma aldosterone concentrations (A) and urinary aldosterone excretion (B) were determined in control, AngII, AngII+IM PRO20, and AngII+IV PRO20 rats. The direct action of PRO20 in aldosterone regulation was tested in primary culture of rat IMCD cells (C). For the in vitro study, the cells were exposed to vehicle, AngII, or AngII+PRO20 and the medium were assayed for aldosterone release. N=3-6 per group. Data are means±SE.
# Under anesthesia, blood was collected puncturing vena cava, and plasma was recovered by centrifugation. At the end of experiments, animals were placed in metabolic cages for urine collections. The renal inner medulla was homogenized in 2.6 mM EDTA, 3.4 mM hydroxyquinoline, 5 mM ammonium acetate, 200 μM PMSF, and 0.256 μM dimercaprol. […] Renin activity in urine, tissue homogenates, and cell culture medium was determined by measurement of AngI generation using an ELISA kit and it was performed in the native condition, active renin content with excessive angiotensinogen, and total renin content with excessive angiotensinogen plus trypsinization as previously described. Aldosterone concentrations in plasma, urine, and cell culture medium were measured using a commercial ELISA kit (Cat#:10004377, Cayman Chemical). […]
# [3] = test system: α-ENaC; experiment: Renal ENaC expression in AngII-infused rats (immunoblotting, qRT-PCR); type: in vivo, rat; conditions: following AngII infusion
# Experimental: FIGS. 28A, 28B, 28C, 28D, 28E, 28F, 28G and 28H show the effect of IMPRO on renal inner medullary ENaC expression during AngThinduced hypertension. The expression of the three subunits of ENaC (α-, β-, and γ-) in the inner medulla of control, AngII and AngII+IM RPO rats was determined by immunobotting (A-E) and qRT-PCR (F-H). N=6 per group. Data are mean+SE.
# Renal tissues were lysed and subsequently sonicated in PBS that contained 1% Triton x-100, 250 μM phenylmethanesulfonyl fluoride (PMSF), 2 mM EDTA, and 5 mM dithiothrietol (DTT) (pH 7.5). Protein concentrations were determined by the use of Coomassie reagent. […] of protein for each sample was denatured in boiling water for 10 min, then separated by SDS-PAGE, and transferred onto nitrocellulose membranes. The blots were blocked 1 h with 5% nonfat dry milk in Tris-buffered saline (TBS), followed by incubation for overnight with primary antibody. […] The blots were quantitated by using Imagepro-plus. […]
# Epithelial sodium channel (ENaC) is the major sodium channel on the apical membrane of the CD Immunoblotting and qRT-PCR analysis of renal ENaC expression was performed. […] In contrast, α-ENaC protein abundance in the cortex was unaffected. qRT-PCR detected 1.6-fold increase of α-ENaC mRNA expression in the inner medulla, which was abolished by IM PRO (FIG. 28F). […]
# renal medullary PRR, sequence (Q6AXS4 18-350): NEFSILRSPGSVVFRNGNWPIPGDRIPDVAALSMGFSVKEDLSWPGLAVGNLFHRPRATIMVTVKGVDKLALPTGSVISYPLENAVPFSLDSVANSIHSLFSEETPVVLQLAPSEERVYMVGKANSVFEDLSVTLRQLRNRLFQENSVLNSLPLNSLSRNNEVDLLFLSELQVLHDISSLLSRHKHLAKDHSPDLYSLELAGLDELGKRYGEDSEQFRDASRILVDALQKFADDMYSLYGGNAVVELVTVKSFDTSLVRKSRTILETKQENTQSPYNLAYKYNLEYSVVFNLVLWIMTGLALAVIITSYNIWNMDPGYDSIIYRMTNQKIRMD
substance,measurement,setting,value
"Angiotensin II (DRVYIHPF; Angiotensin-2; UniProt P01019 25-32, looked up) [AngII]",MAP on day 7,[1],164.7+6.2 mmHg
same,increase in aldosterone levels in the plasma,[2],60%
same,increase in aldosterone levels in the urine,[2],3.2 fold
same,increase in renal medullary α-ENaC protein abundance,[3]; immunoblotting,2.2 fold
same,increase of α-ENaC mRNA expression in the inner medulla,[3]; qRT-PCR,1.6 fold

# Source: patent publication US9586995B2, “Compositions and methods of use for (pro)renin receptor” (University of Utah, priority 2012, dated 2017)
